Test results as given in patent US20140106380A1, “METHODS FOR IDENTIFYING INHIBITORS OF ABETA42 OLIGOMERS” (Merck Sharp & Dohme Crop., priority 2010, published 2014).

Columns and labels:
Assay type in all cases: biochemical
Aβ42 oligomers [1] = target: T1, Aβ42 oligomers (Homo sapiens, UniProt P05067); assay: Aβ42 NT immunoassay (6E10-6E10); settings: P<0.01
T1 construct: Synthetic human Aβ1-42, purchased from American Peptide Company (Sunnyvale, Calif.); purchased American Peptide Company (Sunnyvale, Calif.); host or cells: chemically synthesised peptide
T1 sequence (P05067 672-713 limits assumed): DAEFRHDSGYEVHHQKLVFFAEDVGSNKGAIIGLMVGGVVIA
Procedure: The effect of an Aβ oligomer inhibitor on the metastability of Aβ42 oligomers prepared according Example 1 was evaluated as follows. A sample of the 1 mM Aβ42 DMSO stock was diluted to 10 μM or 100 μM in PBS or Neurobasal (e.g., 10 μl of 1 mM Aβ42 DMSO stock to make 1 ml 10 μM solution or 100 μl A(342 DMSO stock to make 1 ml 100 μM solution). After incubation at 37° C., the diluted oligomer solutions were mixed with scyllo-inositol (SI), a naturally occurring plant sugar alcohol found most abundantly in the coconut palm, to make a final concentrations of 1 μM or 10 μM Aβ42 containing 10 mM SI. The non-compound control oligomer sample contained no SI. The mixtures were incubated on ice for two to three hours to allow establishment of new equilibrium (metastability) among Aβ42 species. The stabilized mixtures were then utilized in the immunoreactive assays. An Aβ42 N-terminal (NT) oligomer ELISA was performed by adopting a 6E10-6E10 ELISA originally developed in house at Merck and also reported by others (Gandy et al., 2010, Ann. Neurol. 68: 220-230; Xia et al., 2009, Arch. Neurol. 66:190-199). […] The immunoreactive signals were read with a multilabel plate reader (EnVision®, PerkinElmer, Waltham, Mass.). The presence of Aβ42 oligomers was determined by a corresponding increase in the NT immunosignal. Values for the ELISA assays were graphed and analyzed with Prism GraphPad software. […]

Aβ42 [2] = target: T2, Aβ42 (Homo sapiens, UniProt P05067); assay: Dynamic light scattering of Aβ42 oligomerization; settings: Aβ42 40 μM, 25 °C, in the presence of SI
T2 construct: Synthetic human Aβ1-42, purchased from American Peptide Company (Sunnyvale, Calif.); purchased American Peptide Company (Sunnyvale, Calif.); host or cells: chemically synthesised peptide
T2 sequence (P05067 672-713 limits assumed): as above
Procedure: Dynamic light scattering (DLS), also known as also known as quasi-elastic laser light scattering, offered another methodology to determine Aβ42 oligomerization by measuring the size distribution profile and shape of particles in solution. […] Sample preparation for the DLS assay was performed in a bio-safety cabinet. All solutions and reagents were pre-filtered with a 0.1 μm Whatman filter (Whatman, Piscataway, N.J.). Aβ42 (100 μM) made in PBS from the 1 mM DMSO stock (Example 1) was filtered with a 0.2 μm filter (Whatman, Piscataway, N.J.) and diluted to 50 μM to 10 μM with PBS or water. The samples were added to the DLS plate (50 μl/well) in the presence or absence of compounds and incubated at room temperature for seven to eight hours. The plate was briefly centrifuged (1 minute at 3000 rpm) and placed in the DynaPro DLS plate reader (Wyatt Technology, Dernbach, Germany), in which different parameters (normalized intensity, hydrodynamic radius, molecular weight, relative molecular mass, percent polydispersity, and sum of square) of the Aβ42 oligomer samples were measured, and analyzed with Dynamics 7.0.0 software (Wyatt Technology, Dernbach, Germany).

Aβ42 oligomers [3] = target: T1, Aβ42 oligomers; assay: Aβ42 CT immunoassay, metastability of pre-formed Aβ42 oligomers; settings: addition to pre-formed Aβ42 oligomers, P<0.01 relative to samples without SI
Procedure: The effect of an Aβ oligomer inhibitor on the metastability of Aβ42 oligomers prepared according Example 1 was evaluated as follows. […] Similarly, the presence of Aβ42 oligomers was detected using an Aβ42 C-terminal (CT) AlphaLISA assay (Eglen et al., 2008, Curr. Chem. Genomics, 1:2-10), a bead based proximity assay, based upon an oxygen channeling technology. […] The immunoreactive signals were read with a multilabel plate reader (EnVision®, PerkinElmer, Waltham, Mass.). The presence of Aβ42 oligomers was determined by a corresponding decrease in the C-terminal immunosignal. Values for the AlphaLISA assays were graphed and analyzed with Prism GraphPad software. […] Values for the ELISA assays were graphed and analyzed with Prism GraphPad software.

Aβ42 [4] = target: T2, Aβ42; assay: Aβ42 CT AlphaLISA, inhibition of early oligomerization; settings: for Aβ42 CT immunoreactivity: Aβ42 1 nM, oligomerization at 4° C. overnight, different buffers, AlphaLISA
Procedure: To test a compound's effect on inhibition of early oligomerization, SI, or a different testing compound, was mixed with the Aβ42 solution to make solutions with final concentrations of SI from 0.1 μM to 10 mM (0.1 μM, 1 μM, 10 μM, 100 μM, 1 mM, and 10 mM) and Aβ42 from 1 nM to 10 μM (1 nM, 10 nM, 100 nM, 1 μM and 10 μM). For example, a 10 μM Aβ42 solution contained, respectively, 0 μM, 0.1 μM, 1 μM, 10 μM, 100 μM, 1 mM and 10 mM SI. The same SI concentration series was applied to other concentrations of the Aβ42 solution indicated above. The mixtures were either incubated at 4° C. overnight or room temperature for two to three hours, before being used in the immunoreactive assay. Similarly, the presence of Aβ42 oligomers was detected using an Aβ42 C-terminal (CT) AlphaLISA assay (Eglen et al., 2008, Curr. Chem. Genomics, 1:2-10), a bead based proximity assay, based upon an oxygen channeling technology. The assay was carried out in a 384 well plate using an AlphaLISA® Human Amyloid β 1-[…]42 Research Immunoassay Kit (PerkinElmer, Waltham, Mass.) according to the manufacturer's directions. To make a 2.5× AlphaLISA acceptor bead and biotinylated anti-Aβ42 antibody mixture, 5.5 μl acceptor beads conjugated to anti-Aβ42 (12F4) and 5.5 μl biotin-Aβ42 antibody (binds to a epitope away from the CT of Aβ42) were added to 1,089 μl 1S AlphaLISA buffer and mixed by brief vortexing. To each well of a 384-well plate, 8 μl of the mix and 2 μl of an Aβ42 sample were added, followed by gentle tapping of the plate to mix the solutions. The plate was incubated at room temperature for one hour. The streptavidin donor bead solution was made in a dark room under safety light by mixing 20.1 μl of streptavidin donor beads with 1,279 μl 1× AlphaLISA buffer. The streptavidin donor bead solution, which binds to the biotinylated anti-Aβ42 antibody, was then added (10 μl/well) to the plate, sealed with an adhesive aluminum membrane, and incubated at room temperature for 30 minutes. Incubation brought the donor and acceptor beads into close proximity. An immunoreactive signal was generated when the donor bead released a singlet oxygen that, when excited at 680nm, was transferred to the acceptor bead, resulting in a light emission at 610 nm. The immunoreactive signals were read with a multilabel plate reader (EnVision®, PerkinElmer, Waltham, Mass.). The presence of Aβ42 oligomers was determined by a corresponding decrease in the C-terminal immunosignal. Values for the AlphaLISA assays were graphed and analyzed with Prism GraphPad software. Similar to signals generated with ELISA, the extent of Aβ42 oligomerization is inversely correlated with the magnitude of the CT immunosignal in AlphaLISA. Values for the ELISA assays were graphed and analyzed with Prism GraphPad software.

O[C@H]1[C@H](O)[C@@H](O)[C@H](O)[C@@H](O)[C@@H]1O [SI, scyllo-inositol]
NT immunoreactivity (Aβ42 oligomers [1]; addition to pre-formed Aβ42 oligomers): significant decrease | % Intensity, Peak 1 (Aβ42 [2]): 0.7% | % Intensity, Peak 2 (Aβ42 [2]): 96.88% | % Mass, Peak 1 (Aβ42 [2]): 76% | % Mass, Peak 2 (Aβ42 [2]): 38% | MW-R, Peak 1 (Aβ42 [2]): 11.6 kDa | MW-R, Peak 2 (Aβ42 [2]): 527.1 kDa | Radius, Peak 1 (Aβ42 [2]): 2.5 nm | Radius, Peak 2 (Aβ42 [2]): remained unchanged | % Mass, Peak 1 (Aβ42 [2]; listed as Ab42/SI): 72.93% | % Mass, Peak 2 (Aβ42 [2]; listed as Ab42/SI): 38.75% | Radius, Peak 2 (Aβ42 [2]; listed as Ab42/SI): 21.4 nm | CT immunoreactivity (Aβ42 oligomers [3]): statistically significant increase | Aβ42 CT immunoreactivity (Aβ42 [4]): dose dependent increase

OC1C(O)C(O)C(O)C(O)C1O (stereo not drawn) [chiro-inositol]
Aβ42 CT immunoreactivity (Aβ42 [4]): no effect

O[C@H]1[C@H](O)[C@@H](O)[C@H](O)[C@@H](O)[C@H]1O [myo-inositol]
Aβ42 CT immunoreactivity (Aβ42 [4]): no effect

Ac-Leu-Pro(N-CH3)Phe-Phe-Asp-NH2 [Peptide IV]
NT immunosignal (Aβ42 oligomers [1]; FIG. 7B): significant decrease | CT immunoreactivity (Aβ42 [4]; FIG. 7A): dose-depended increase
